Test results taken from EP0067666A1, “Salts of antimicrobial naphthyridine and quinoline compounds and their production” (priority 1981, dated 1982).
Values after ≈ are worked out from the molar mass of the structure shown. Like-named read-outs stand apart in the source and are kept apart here.

Experiments:
[1] = Lyophilization of the salts; assay type: physicochemical
Source text: The unpredictable characteristics of the salts prepared from Compounds A and B are clear from consideration of the results reported in Table 1. These characteristics were considered in view of the necessary requirements (a-f) outlined above for preparing a useful parenteral dosage form. […] From the data in Table 1, the lactate salts appear to be useful; however, lactic acid cannot be consistently obtained in a satisfactory grade in presently available commercial forms and is therefore not useful. The choline and sodium salts were ruled out based on the pH of their respective solutions.

[2] = Two-way crossover oral trial, drug blood levels by disk agar diffusion microbiological assay; assay type: in vivo; conditions: Beagle dogs, single 25 mg/kg (parent compound equivalent) oral dose in hard gelatine capsules; compound B compared with compound D as the glutamate
Description: Drug blood levels were determined by a disk agar diffusion microbiological assay.

Strep. pneumoniae SV-1 = test: Antibacterial activity, MIC; assay type: cell-based; conditions: Streptococcus pneumoniae, SV1, based on content of compound B
E. coli Vogel = test: Antibacterial activity, MIC; assay type: cell-based; conditions: Escherichia coli, based on content of compound B
Strep. faecalis MGH-2 = test: Antibacterial activity, MIC; assay type: cell-based; conditions: Enterococcus faecalis, MGH2, based on content of compound B
Strep. pyogenes C-203 = test: Antibacterial activity, MIC; assay type: cell-based; conditions: based on content of compound B
[3] = test system: Klebsiella pneumoniae MGH-2; test: Acute mouse protection test; assay type: in vivo; conditions: subcutaneous, single dose given at time of challenge, compound B series
Staph. aureus H 228 = test: Antibacterial activity, MIC; assay type: cell-based; conditions: Staphylococcus aureus, H228, based on content of compound B
Proteus retgeri M 1771 = test: Antibacterial activity, MIC; assay type: cell-based; conditions: based on content of compound B
[4] = test system: Staphylococcus aureus UC-76; test: Acute mouse protection test; assay type: in vivo; conditions: single dose given at time of challenge, compound B series
Escherichia coli Vogel = test: Acute mouse protection test; assay type: in vivo; conditions: Escherichia coli, single dose given at time of challenge, compound B series
Staph. aureus UC-76 = test: Antibacterial activity, MIC; assay type: cell-based; conditions: based on content of compound B
Klebs. pneumoniae MGH-2 = test: Antibacterial activity, MIC; assay type: cell-based; conditions: Klebsiella pneumoniae, MGH2, based on content of compound B
Pseudo. aeruginosa UI-18 = test: Antibacterial activity, MIC; assay type: cell-based; conditions: based on content of compound B
Entero cloacae MA 2646 = test: Antibacterial activity, MIC; assay type: cell-based; conditions: based on content of compound B

CCn1cc(C(=O)O)c(=O)c2cc(F)c(N3CCNCC3)cc21 [A acetate]
lyophilization [1]: cannot be successfully lyophilized

CCn1cc(C(=O)O)c(=O)c2cc(F)c(N3CCNCC3)nc21 [B acetate]
lyophilization [1]: cannot be successfully lyophilized

CCn1cc(C(=O)O)c(=O)c2cc(F)c(N3CCNCC3)nc21 [Compound B L-Glutamic, 1-Ethyl-6-fluoro-1,4-dihydro-4-oxo-7-(1-piperazinyl)-1,8-naphthyridine-3-carboxylic acid L-glutamate]
drug half-life [2]: no significant difference
peak blood level [2]: no significant difference

CCn1cc(C(=O)O)c(=O)c2cc(F)c(N3CCNCC3)nc21 [Compound B, 1-ethyl-6-fluoro-1,4-dihydro-4-oxo-7-(1-piperazinyl)-1,8-naphthyridine-3-carboxylic acid, reference compound]
MIC (Strep. pneumoniae SV-1): 3.1 µg/mL (≈ 9.68 µM)
drug half-life [2]: no significant difference
peak blood level [2]: no significant difference
MIC (E. coli Vogel): 0.2 µg/mL (≈ 0.624 µM)
MIC (Strep. faecalis MGH-2): 1.6 µg/mL (≈ 4.99 µM)
MIC µg/ml Strep. pyogenes C-203 (Strep. pyogenes C-203): 3.1 µg/mL (≈ 9.68 µM)
Single sc Dose PD50 (mg/kg) ± 95% Confidence Limits Klebsiella pneumoniae MGH-2 [3]: 2.6 ± 0.6 mg/kg
MIC (Staph. aureus H 228): 3.1 µg/mL (≈ 9.68 µM)
MIC (Proteus retgeri M 1771): 0.1 µg/mL (≈ 0.312 µM)
ED50 ([4]; Staphylococcus aureus, UC76, po, oral, read-out: Single po Dose PD50 (mg/kg) ± 95% Confidence Limits Staphylococcus aureus UC-76): 14 ± 7 mg/kg
Single sc Dose PD50 (mg/kg) ± 95% Confidence Limits Staphylococcus aureus UC-76 ([4]; subcutaneous): 7.4 ± 2.2 mg/kg
ED50 (Escherichia coli Vogel; po, read-out: Single po Dose PD50 (mg/kg) ± 95% Confidence Limits Escherichia coli Vogel): 3.1 ± 0.7 mg/kg
ED50 (Escherichia coli Vogel; sc, subcutaneous, read-out: Single sc Dose PD50 (mg/kg) ± 95% Confidence Limits Escherichia coli Vogel): 1.4 ± 0.4 mg/kg
MIC µg/ml Staph. aureus UC-76 (Staph. aureus UC-76): 0.2 µg/mL (≈ 0.624 µM)
MIC (Klebs. pneumoniae MGH-2): 0.1 µg/mL (≈ 0.312 µM)
MIC µg/ml Pseudo. aeruginosa UI-18 (Pseudo. aeruginosa UI-18): 0.8 µg/mL (≈ 2.5 µM)
MIC (Entero cloacae MA 2646): 0.2 µg/mL (≈ 0.624 µM)
